# Measurements as given in patent US20210015857A1, “METHOD FOR IMMUNOTHERAPY DRUG TREATMENT” (The University of Western Australia, priority 2018, published 2021).
# Experiments:
# [1] = system: Renca kidney cancer tumours; experiment: Oral retinoids combined with ICB in Renca kidney cancer-bearing mice; assay type: in vivo, mouse; conditions: retinoid oral 6 days from day 9, ICB days 12, 14, 16 (FIG. 24)
# Description: The following retinoids and dosages were employed: Bexarotene (Saphire Bioscience) was dosed at 100 mg/kg; tretinoin and isotretinoin (Sigma-Aldrich) were all dosed at 10 mg/kg.
# Renca kidney cancer = experiment: pSTAT1 flow cytometry of tumours after tretinoin; assay type: in vivo, mouse; conditions: tretinoin (FIG. 22C)
# Description: (§1) For detection of phospho-STAT1, dissociated tumours were stained with surface antibodies, fixed with 1.5% formaldehyde for 10 minutes, then permeabilized with ice-cold methanol at 4° C. for 10 minutes. Cells were stained with a rabbit-anti-pSTAT1 antibody (Tyr701) -PE (Cell Signaling Technology) for 30 minutes at room temperature (RT).
# To test whether retinoids induce the ICB response-associated phenotype characterised by increased NK cells, inflammatory markers and pSTAT1 positive leukocytes in the tumour, Renca kidney cancer-bearing mice were treated for […] with oral tretinoin (10 mg/kg) starting on day 12 and harvested tumours on day 15 for flow cytometry. In subsequent experiments AB1-HA mesothelioma or CT26 colorectal cancer tumour-bearing mice were treated with tretinoin for 3 days at 10 mg/kg i.p., starting on day 10 and harvested tumours on day 13 for flow cytometry and immunohistochemistry.
# CT26 colorectal tumours = experiment: pSTAT1 immunohistochemistry of tumours after tretinoin; assay type: in vivo, mouse; conditions: tretinoin 10 mg/kg (FIG. 22A, B)
# Description: For immunohistochemical staining of STAT1 and pSTAT1, slides of 4-μm thickness were cut from formalin-fixed, parafin-embedded (FFPE) tissue blocks. Subsequently, slides were deparafinized in two changes of xylene for about 5 min followed by rehydration in changes of 100%, 96%, 70% and 40% ethanol and distilled water. Next, for STAT1 staining, antigen retrieval using 10 mM citrate buffer (pH 6.0) was performed for about 10 min at 121° C. using a pressure cooker (the PT-module, Thermo scientific, labvision). For pSTAT1 staining, slides were sub-boiled in 1 M EDTA buffer (pH 8.0) for about 10 minutes in a microwave. Slides were rinsed in TBST and the endogenous peroxidase was blocked using 3% hydrogen peroxidase (Sigma) in distilled water. Sections were washed again in TBST and blocked with goat serum (Vectastain) diluted in PBS as per manufacturer's instructions. Primary antibody, STAT1 or pSTAT1 (Cell Signaling, dilution: 1/800 and 1/200 respectively), was incubated for 60 minutes at room temperature (RT). Sections were washed and secondary antibody, goat anti-Rb IgG-HRP (Santa Cruz), was incubated for about 30 minutes at RT, before washing again. Betazoid DAB chromogen (Biocare Medical) was prepared as per manufacturer's instructions. Chromogen was applied, sections were monitored for the development of a brown colour and the reaction was stopped with H2O. […]
# [2] = system: AB1-HA mesothelioma tumours; experiment: Tretinoin combined with ICB in AB1-HA tumour-bearing mice, tumour growth; assay type: in vivo, mouse
# Description: […] The administration of tretinoin to the mice started either 3 days before ICB or at the same time as the ICB (arm 6). Tretinoin was dosed at three dosages; 10 mg/kg (arm 3), 5 mg/kg (arm 4) or 1 mg/kg (arm 5) and was given for 9 days in total.
# urothelial cancer = conditions: 348 urothelial cancer patients; cited from earlier work
# melanoma = melanoma cohort n=33; cited from earlier work
# [3] = system: AE17 mesothelioma tumours; experiment: Poly(I:C) pretreatment followed by ICB with or without IFNAR blocking antibody, tumour growth; assay type: in vivo, mouse
# Description: To test whether the mechanism underlying the priming effect of Poly-I:C was mediated through IFN alpha/beta induction (as discussed in Example 6), priming experiments were repeated while adding blocking antibodies against the IFN alpha/beta receptor (IFNAR). C57BL/6 AE17 mesothelioma tumour-bearing mice were treated with CPB on day 22 after tumour inoculation, with or without pretreatment of 3 days of 50 μg s.c. Poly-I:C in the tumour area (day 17-19), with or without blocking antibodies against IFNAR (e.g., […] monoclonal antibody MAR1-5A3 as sourced from BiXcell) (0.5 mg i.p., 3 times/week) starting at the same time.
# [4] = system: AE17 mesothelioma tumours; experiment: Flow cytometry of AE17 tumours after intratumoural IFN alpha or poly(I:C) pretreatment; assay type: in vivo, mouse; conditions: intratumoural 3 days, vs PBS (FIG. 17)
# Description: For flow cytometry, tumours were harvested and immediately submerged in cold PBS, cut into 1-2 mm pieces with a scalpel blade and dissociated using the GentleMACS system. Fc block (anti-CD16/CD32, BD) was used for 10 minutes on ice. UV Zombie live/dead (Biolegend) was used to discriminate live cells. Cells were permeabilized and fixed using FoxP3 fix/Perm buffer kit (Biolegend) before addition of antibodies for 20 minutes at RT. See Supplementary Table 2 for antibody details. Cells were kept in stabilizing fixative until acquisition. Data were acquired on a BD Fortessa flow cytometer and analyzed using FlowJo software (TreeStar).
# as §1
# To verify the potential of recombinant IFN alpha to induce the response-associated phenotype (i.e., to sensitise the tumour cellular microenvironment to ICB) similarly to Poly-I:C, AE17 mesothelioma tumour-bearing mice were pretreated with Poly-I:C or recombinant IFN alpha (: R&D systems) intratumourally for 3 days (or PBS control). […]
molecule,measurement,setting,value
C=C(c1ccc(C(=O)O)cc1)c1cc2c(cc1C)C(C)(C)CCC2(C)C [bexarotene],"percentage of complete regression after combination therapy with ICB, compared to ICB alone",[1],increased percentage of complete regression
"CC1=C(/C=C/C(C)=C/C=C/C(C)=C\C(=O)O)C(C)(C)CCC1 [isotretinoin, 13-cis-retinoic acid]","percentage of complete regression after combination therapy with ICB, compared to ICB alone",[1],increased percentage of complete regression
"CC1=C(/C=C/C(C)=C/C=C/C(C)=C/C(=O)O)C(C)(C)CCC1 [tretinoin, all-trans retinoic acid]",pSTAT1 positive leukocytes in tumours (flow cytometry),Renca kidney cancer,"increased pSTAT1 positive leukocytes in tumours, particularly in MHC class II positive cells"
same,pSTAT1 immune cell infiltrates in tumours (immunohistochemistry),CT26 colorectal tumours,increased patches of pSTAT1 immune cell infiltrates
same,"efficacy of ICB, retinoid before ICB vs at same time as ICB",[2]; AB1-HA (FIG. 21),markedly improved the efficacy of ICB compared to when the retinoid was administered at same time as ICB
same,efficacy of combination with anti-PD-L1 antibody alone as ICB,"[2]; AB1-HA, tretinoin 10 mg/kg i.p. 9 days from day 6, anti-PD-L1 days 8, 10, 12 (FIG. 23)",more efficacious than use of the antibody alone
same,response of the tumours to ICB,"[2]; AB1-HA, tretinoin 10, 5 or 1 mg/kg for 9 days starting 3 days before anti-CTLA4/anti-PD-L1 (FIG. 21)",improved the response of the tumours to ICB in a dose-dependent manner
atezolizumab: anti-PD-L1 antibody,"best response: complete responders (CR), number of patients",urothelial cancer,25
same,"best response: partial responders (PR), number of patients",urothelial cancer,43
same,"best response: progressors (PD), number of patients",urothelial cancer,167
same,"best response: stable disease (SD), number of patients",urothelial cancer,63
nivolumab: anti-PD1 antibody,"non-responsive (PD), number of patients",melanoma,23
same,"responsive (CR and PR), number of patients",melanoma,10
olyinosinic:polycytidylic acid [poly(I:C)],beneficial effect of pretreatment under IFNAR blockade,[3]; cotreatment with IFNAR blocking antibodies (FIG. 16),abrogated
same,tumour growth,"[3]; poly(I:C) 3 days before ICB, vs ICB alone (FIG. 16)",clear delay in tumour growth compared to ICB alone
same,NK infiltration (NK cells of all leukocytes),[4],increased NK cell numbers
same,STAT1 phosphorylation (pSTAT1 activation),[4],pSTAT1 activation
